Experimental data published in the supplement of paper PMC12463676, “Small-molecule dissolution of stress granules by redox modulation benefits ALS models” (Nature Chemical Biology, 2025).

Columns and labels:
potassium arsenate = compound: O=[As]([O-])(O)O.[K+] [potassium arsenate]; test: thermal stability z-score vs DMSO; higher = more thermally stabilized by treatment; conditions: HeLa; arsenate concentration 1 mM
Procedure: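 Cellular thermal proteome profiling in HeLa cells treated with 1 mM arsenate for 1 h (DMSO pretreatment), heated to ten temperatures (37-66.3 °C). Soluble protein was quantified by TMT mass spectrometry relative to DMSO controls; the thermal stability score was transformed to a z-score; mean of n = 3 experiments.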

lipoamide = compound: NC(=O)CCCCC1CCSS1 [lipoamide]; test: as above; conditions: HeLa, lipoamide concentration 100 µM
Procedure: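 Cellular thermal proteome profiling in HeLa cells. Cells were treated with 100 µM lipoamide for 1 h, with or without 1 mM arsenate for a further 1 h, then heated to ten temperatures (37-66.3 °C), and soluble protein was quantified by TMT mass spectrometry relative to 0.1% DMSO controls. The thermal stability score (sum of log2 fold changes minus the abundance score) was transformed to a z-score; mean of n = 3 experiments.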

[1] = arsenate co-treatment: 1 mM arsenate 1 h
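Further: each temperature applied for 3 min, abundance score taken as mean log2 fold change at the two lowest temperatures, z-score obtained by mean subtraction and division by SD.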

UniProt Q92930, sequence (Q92930 whole entry): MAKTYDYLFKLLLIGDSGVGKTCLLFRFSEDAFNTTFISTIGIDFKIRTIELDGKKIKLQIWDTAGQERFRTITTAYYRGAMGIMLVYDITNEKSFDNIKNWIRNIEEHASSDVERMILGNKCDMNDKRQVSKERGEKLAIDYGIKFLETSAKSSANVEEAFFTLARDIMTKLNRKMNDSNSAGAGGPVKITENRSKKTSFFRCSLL
UniProt P57737, sequence (P57737 whole entry): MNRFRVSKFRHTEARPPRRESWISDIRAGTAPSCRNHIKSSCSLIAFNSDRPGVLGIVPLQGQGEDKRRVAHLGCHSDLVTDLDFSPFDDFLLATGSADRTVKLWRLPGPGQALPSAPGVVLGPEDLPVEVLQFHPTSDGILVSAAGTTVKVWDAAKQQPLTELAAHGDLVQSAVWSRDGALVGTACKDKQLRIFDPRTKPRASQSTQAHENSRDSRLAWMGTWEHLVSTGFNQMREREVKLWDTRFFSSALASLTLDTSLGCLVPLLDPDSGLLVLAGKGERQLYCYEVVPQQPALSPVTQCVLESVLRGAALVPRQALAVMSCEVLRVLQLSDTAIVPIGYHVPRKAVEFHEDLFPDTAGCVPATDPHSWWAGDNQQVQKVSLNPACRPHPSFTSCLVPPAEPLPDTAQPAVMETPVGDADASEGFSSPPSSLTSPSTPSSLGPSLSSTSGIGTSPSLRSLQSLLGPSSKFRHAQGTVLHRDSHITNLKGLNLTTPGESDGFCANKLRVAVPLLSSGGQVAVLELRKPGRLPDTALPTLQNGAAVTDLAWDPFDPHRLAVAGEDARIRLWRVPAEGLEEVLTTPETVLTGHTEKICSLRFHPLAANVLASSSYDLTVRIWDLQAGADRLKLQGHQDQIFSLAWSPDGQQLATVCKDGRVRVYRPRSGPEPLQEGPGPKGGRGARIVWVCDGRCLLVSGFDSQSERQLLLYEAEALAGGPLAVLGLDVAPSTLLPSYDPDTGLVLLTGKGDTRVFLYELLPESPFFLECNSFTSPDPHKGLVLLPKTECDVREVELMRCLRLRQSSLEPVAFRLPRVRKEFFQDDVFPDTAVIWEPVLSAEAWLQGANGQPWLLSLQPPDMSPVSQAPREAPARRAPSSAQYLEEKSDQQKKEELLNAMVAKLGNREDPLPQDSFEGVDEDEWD
UniProt Q9UPR3, sequence (Q9UPR3 whole entry): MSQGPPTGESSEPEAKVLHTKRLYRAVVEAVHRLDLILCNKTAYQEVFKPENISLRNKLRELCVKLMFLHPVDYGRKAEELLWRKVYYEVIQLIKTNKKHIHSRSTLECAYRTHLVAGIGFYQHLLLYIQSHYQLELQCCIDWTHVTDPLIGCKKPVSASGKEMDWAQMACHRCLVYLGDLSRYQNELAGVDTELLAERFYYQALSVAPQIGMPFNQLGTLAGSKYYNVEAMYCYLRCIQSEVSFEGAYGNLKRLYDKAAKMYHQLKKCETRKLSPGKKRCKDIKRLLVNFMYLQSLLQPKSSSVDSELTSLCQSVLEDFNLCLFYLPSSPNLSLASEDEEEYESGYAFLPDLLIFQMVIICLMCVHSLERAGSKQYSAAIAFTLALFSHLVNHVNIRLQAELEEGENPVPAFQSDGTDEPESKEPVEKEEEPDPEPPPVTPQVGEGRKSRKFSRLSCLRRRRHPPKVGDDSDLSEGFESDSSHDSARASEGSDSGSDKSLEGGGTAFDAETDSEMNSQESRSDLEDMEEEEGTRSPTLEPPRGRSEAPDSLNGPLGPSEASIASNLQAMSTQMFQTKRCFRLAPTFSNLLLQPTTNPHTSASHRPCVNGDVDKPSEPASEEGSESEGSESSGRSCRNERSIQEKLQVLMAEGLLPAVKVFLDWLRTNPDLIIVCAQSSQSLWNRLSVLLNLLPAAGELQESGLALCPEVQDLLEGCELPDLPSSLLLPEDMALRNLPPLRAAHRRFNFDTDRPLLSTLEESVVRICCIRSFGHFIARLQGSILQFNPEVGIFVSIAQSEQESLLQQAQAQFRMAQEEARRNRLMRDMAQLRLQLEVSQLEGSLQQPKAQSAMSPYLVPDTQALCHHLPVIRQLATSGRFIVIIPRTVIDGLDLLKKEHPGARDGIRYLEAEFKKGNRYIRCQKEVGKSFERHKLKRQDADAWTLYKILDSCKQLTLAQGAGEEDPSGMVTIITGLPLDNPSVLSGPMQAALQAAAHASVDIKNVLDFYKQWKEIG
UniProt Q14257, sequence (Q14257 whole entry): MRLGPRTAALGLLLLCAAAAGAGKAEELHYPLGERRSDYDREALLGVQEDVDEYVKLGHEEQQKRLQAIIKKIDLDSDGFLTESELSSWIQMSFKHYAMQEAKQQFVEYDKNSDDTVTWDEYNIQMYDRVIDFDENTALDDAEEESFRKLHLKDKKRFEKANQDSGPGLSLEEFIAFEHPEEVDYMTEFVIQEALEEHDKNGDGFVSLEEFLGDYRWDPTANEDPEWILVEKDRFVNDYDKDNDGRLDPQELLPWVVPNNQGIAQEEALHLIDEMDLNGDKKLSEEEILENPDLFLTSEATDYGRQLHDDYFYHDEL
UniProt Q9ULH7, sequence (Q9ULH7 whole entry): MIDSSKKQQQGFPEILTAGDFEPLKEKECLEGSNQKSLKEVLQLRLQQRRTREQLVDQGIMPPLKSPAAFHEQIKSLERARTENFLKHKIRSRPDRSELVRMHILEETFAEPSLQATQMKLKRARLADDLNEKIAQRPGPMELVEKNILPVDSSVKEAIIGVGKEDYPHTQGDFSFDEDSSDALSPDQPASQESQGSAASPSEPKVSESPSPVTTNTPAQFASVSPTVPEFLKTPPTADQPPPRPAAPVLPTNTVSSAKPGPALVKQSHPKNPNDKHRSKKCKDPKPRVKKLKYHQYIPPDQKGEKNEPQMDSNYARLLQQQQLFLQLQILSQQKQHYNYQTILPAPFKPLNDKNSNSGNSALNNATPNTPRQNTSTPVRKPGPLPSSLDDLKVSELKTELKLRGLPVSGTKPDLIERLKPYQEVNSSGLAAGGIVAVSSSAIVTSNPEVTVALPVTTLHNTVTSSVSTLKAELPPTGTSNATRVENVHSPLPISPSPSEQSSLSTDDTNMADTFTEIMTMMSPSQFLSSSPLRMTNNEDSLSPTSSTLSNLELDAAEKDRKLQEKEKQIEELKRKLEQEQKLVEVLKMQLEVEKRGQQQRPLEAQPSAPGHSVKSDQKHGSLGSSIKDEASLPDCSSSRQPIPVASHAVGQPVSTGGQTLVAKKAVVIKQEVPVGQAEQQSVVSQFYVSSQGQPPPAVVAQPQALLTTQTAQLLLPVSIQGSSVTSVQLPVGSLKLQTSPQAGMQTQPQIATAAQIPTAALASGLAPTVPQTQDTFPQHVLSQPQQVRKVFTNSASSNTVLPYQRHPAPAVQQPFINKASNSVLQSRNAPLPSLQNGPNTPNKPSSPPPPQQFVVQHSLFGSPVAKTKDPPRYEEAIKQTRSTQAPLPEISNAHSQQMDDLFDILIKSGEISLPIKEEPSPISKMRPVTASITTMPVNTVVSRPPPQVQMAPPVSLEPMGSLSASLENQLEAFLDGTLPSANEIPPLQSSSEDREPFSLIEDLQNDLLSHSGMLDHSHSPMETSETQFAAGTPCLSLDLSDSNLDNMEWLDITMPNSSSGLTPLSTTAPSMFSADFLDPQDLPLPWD
UniProt P20936, sequence (P20936 whole entry): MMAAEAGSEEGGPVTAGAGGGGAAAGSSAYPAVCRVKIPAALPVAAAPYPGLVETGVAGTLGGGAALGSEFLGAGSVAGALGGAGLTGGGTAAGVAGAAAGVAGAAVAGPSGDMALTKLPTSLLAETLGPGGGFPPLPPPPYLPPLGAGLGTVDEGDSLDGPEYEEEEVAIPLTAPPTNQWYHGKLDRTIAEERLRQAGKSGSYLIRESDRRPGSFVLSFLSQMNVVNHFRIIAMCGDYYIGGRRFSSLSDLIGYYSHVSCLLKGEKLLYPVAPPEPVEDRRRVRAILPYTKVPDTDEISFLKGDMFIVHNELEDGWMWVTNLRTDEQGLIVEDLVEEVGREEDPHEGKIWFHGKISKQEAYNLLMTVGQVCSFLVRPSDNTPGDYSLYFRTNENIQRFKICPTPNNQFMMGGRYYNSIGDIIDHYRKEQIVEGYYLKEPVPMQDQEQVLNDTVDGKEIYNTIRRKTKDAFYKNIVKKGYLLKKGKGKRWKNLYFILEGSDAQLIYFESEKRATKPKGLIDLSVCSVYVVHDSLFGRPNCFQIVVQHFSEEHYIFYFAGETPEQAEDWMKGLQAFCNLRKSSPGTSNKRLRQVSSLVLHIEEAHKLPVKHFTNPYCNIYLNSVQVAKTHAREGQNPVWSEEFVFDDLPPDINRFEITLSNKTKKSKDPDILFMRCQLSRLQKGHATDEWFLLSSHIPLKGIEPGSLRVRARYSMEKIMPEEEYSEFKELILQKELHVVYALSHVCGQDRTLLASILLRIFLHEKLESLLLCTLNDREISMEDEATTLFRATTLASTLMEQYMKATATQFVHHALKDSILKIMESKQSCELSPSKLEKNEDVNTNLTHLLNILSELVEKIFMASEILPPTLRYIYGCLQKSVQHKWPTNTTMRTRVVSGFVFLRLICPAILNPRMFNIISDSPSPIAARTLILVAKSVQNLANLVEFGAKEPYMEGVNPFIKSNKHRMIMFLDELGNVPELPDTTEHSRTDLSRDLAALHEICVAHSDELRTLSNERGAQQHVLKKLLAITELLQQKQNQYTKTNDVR
UniProt Q9UL25, sequence (Q9UL25 whole entry): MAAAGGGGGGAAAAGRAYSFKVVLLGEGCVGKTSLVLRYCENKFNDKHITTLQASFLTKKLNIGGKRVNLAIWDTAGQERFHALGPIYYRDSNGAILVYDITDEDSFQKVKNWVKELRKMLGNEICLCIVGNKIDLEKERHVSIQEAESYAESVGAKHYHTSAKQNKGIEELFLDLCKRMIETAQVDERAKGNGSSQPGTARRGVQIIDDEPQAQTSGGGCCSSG
UniProt O95857, sequence (O95857 whole entry): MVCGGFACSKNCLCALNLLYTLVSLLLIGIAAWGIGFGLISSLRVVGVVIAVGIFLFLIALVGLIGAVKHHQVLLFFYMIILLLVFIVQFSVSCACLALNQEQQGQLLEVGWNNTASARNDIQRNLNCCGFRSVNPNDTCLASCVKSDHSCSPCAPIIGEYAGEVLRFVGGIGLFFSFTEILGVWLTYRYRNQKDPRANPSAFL

Target	thermal stability z-score (potassium arsenate)	thermal stability z-score (lipoamide; [1])	thermal stability z-score (lipoamide; arsenate co-treatment: none)
TUBB6 (UniProt Q9BUF5)	0.532	-0.348	0.0923
UBE4B (UniProt O95155)	0.599	-0.444	-0.412
GNPAT (UniProt O15228)	0.518	0.161	0.296
SURF4 (UniProt O15260)	-0.243	-0.416	-0.214
ARHGAP10 (UniProt A1A4S6)	0.226	0.133	0.268
MRM1 (UniProt Q6IN84)	-0.991	-0.994	-0.349
TCF25 (UniProt Q9BQ70)	-0.542	-0.802	-0.429
ARHGAP4 (UniProt P98171)	0.0513	-0.00218	0.000585
SERINC1 (UniProt Q9NRX5)	0.329	0.282	-0.488
RAB5B (UniProt P61020)	-0.758	0.278	-0.614
MCMBP (UniProt Q9BTE3)	0.409	-0.129	-0.0734
MYO1B (UniProt O43795)	-2.1	0.967	0.54
ACAT2 (UniProt Q9BWD1)	-0.347	-0.0152	6.3e-05
TMEM43 (UniProt Q9BTV4)	0.701	-3.42	-3.08
RDH11 (UniProt Q8TC12)	0.385	-0.514	0.808
RASA1 (UniProt P20936)	1.15	0.447	0.753
TMEM199 (UniProt Q8N511)	0.171	-0.91	-1.15
GORASP2 (UniProt Q9H8Y8)	0.824	0.45	-0.749
RAB8B (UniProt Q92930)	-0.115	0.327	0.127
PGM2L1 (UniProt Q6PCE3)	0.314	0.405	0.129
CCAR2 (UniProt Q8N163)	0.358	-0.42	-0.615
KIF15 (UniProt Q9NS87)	0.921	-0.328	-0.386
VIPAS39 (UniProt Q9H9C1)	0.358	-0.0571	0.338
AP3D1 (UniProt O14617)	0.577	-0.494	-0.336

Target	thermal stability z-score (potassium arsenate)	thermal stability z-score (lipoamide; [1])	thermal stability z-score (lipoamide; arsenate co-treatment: none)
SMYD5 (UniProt Q6GMV2)	0.224	-0.19	-0.177
DNA2 (UniProt P51530)	-0.131	-0.0519	-0.0211
TSPAN13 (UniProt O95857)	-0.0847	0.229	0.441
THNSL1 (UniProt Q8IYQ7)	0.0365	0.202	-0.188
MFSD12 (UniProt Q6NUT3)	1.14	-0.485	-1.79
USP33 (UniProt Q8TEY7)	1.21	-0.155	-0.011
CCDC53 (UniProt Q9Y3C0)	-0.495	-0.425	-1.22
GLMN (UniProt Q92990)	-0.181	-0.559	-0.296
PBXIP1 (UniProt Q96AQ6)	-0.357	-3.02	-2.69
MYBBP1A (UniProt Q9BQG0)	-1.35	1.21	0.675
ARMC1 (UniProt Q9NVT9)	0.476	0.616	0.111
CASC4 (UniProt Q6P4E1)	0.0247	0.245	0.111
TSC1 (UniProt Q92574)	-0.0936	0.103	-0.0297
RALA (UniProt P11233)	-0.459	0.107	-0.0183
GNAS	0.0562	0.278	0.172
HSPA4L (UniProt O95757)	0.388	0.0785	-0.0888
HNRNPH1 (UniProt P31943)	-0.9	-0.365	0.482
RCN2 (UniProt Q14257)	0.788	-3.71	-2.81
TRAF3IP1 (UniProt Q8TDR0)	0.694	0.519	0.373
SPAG5 (UniProt Q96R06)	-0.162	-0.791	-0.122
FERMT1 (UniProt Q9BQL6)	1.07	0.0116	0.904
SLC25A3 (UniProt Q00325)	0.572	0.802	0.951
UEVLD (UniProt Q8IX04)	0.0354	0.183	0.107
CORO7 (UniProt P57737)	-0.177	0.188	0.174

Target	thermal stability z-score (potassium arsenate)	thermal stability z-score (lipoamide; [1])	thermal stability z-score (lipoamide; arsenate co-treatment: none)
RAB21 (UniProt Q9UL25)	0.119	0.0174	0.118
FOXO3 (UniProt O43524)	0.19	-0.0135	-0.184
USP36 (UniProt Q9P275)	-0.265	0.216	-0.0229
TUBB (UniProt P07437)	-0.425	0.525	-0.284
MAEA (UniProt Q7L5Y9)	-0.343	-0.402	-0.993
LRRC45 (UniProt Q96CN5)	0.0892	-0.00638	0.0708
ZNF787 (UniProt Q6DD87)	0.223	0.853	1.17
FBXL12 (UniProt Q9NXK8)	-0.29	-0.195	0.0639
B3GLCT (UniProt Q6Y288)	0.968	-0.669	-1.54
EPS15 (UniProt P42566)	-0.469	-0.339	-0.0217
SMG5 (UniProt Q9UPR3)	-0.104	-0.0554	0.0814
NAMPT (UniProt P43490)	-0.494	0.551	0.0412
RBMS1 (UniProt P29558)	-0.265	-0.643	0.176
EMC7 (UniProt Q9NPA0)	-0.101	-0.402	-0.134
MGST1 (UniProt P10620)	0.892	0.304	-0.147
MRPL32 (UniProt Q9BYC8)	-0.401	-0.0526	0.482
DFNA5 (UniProt O60443)	0.523	0.218	0.152
ERGIC2 (UniProt Q96RQ1)	-0.232	-0.942	-0.866
ADH5 (UniProt P11766)	-1.99	1.89	0.761
KAT7 (UniProt O95251)	-0.144	0.116	-0.0536
MMACHC (UniProt Q9Y4U1)	-0.12	-0.0163	-0.159
H2AFZ|H2AFV	-1.63	1.28	1.33
MKL2 (UniProt Q9ULH7)	0.418	-0.208	-0.342
